Literature values as cited in patent US10463707B2, “Process for preparing herbal extracts” (MOLEAC PTE LTD., priority 2015, dated 2019).

Conditions: Chen et al. Planta Med 2009

In the case of C/C=C\c1cc(OC)c(OC)cc1OC [beta asarone], the “Safe limits for beta asarone consumption” value is listed as 0.115 mg per person per day and the “Safe limits for beta asarone consumption (equivalent)” value (equivalent to the per-person limit) is listed as 0.002 mg/kg body weight/day.
